The source of these data is PMC4380447, “Infrared Fluorescent Imaging as a Potent Tool for In Vitro, Ex Vivo and In Vivo Models of Visceral Leishmaniasis” (PLoS Neglected Tropical Diseases, 2015).

Like-named read-outs stand apart in the source and are kept apart here.

The subject of the assay is HSP70+L. infantum amastigotes. In words: ex vivo splenic explant culture of infrared HSP70+L. infantum-infected BALB/c mice, infrared fluorescence readout (384-well). In kind it is cell-based. To be noted: Leishmania infantum. From the text:
Several parameters were included in the development of the explant culture. i) Parasite infection rate is not equal in all animals from the same batch, thus in order to normalize the ex vivo culture, only spleens with weights ≥ 0.7 g were selected to prepare the ex vivo explants. ii) The starting cell density was adjusted in terms of fluorescence emission in a wide range of arbitrary units (0.25, 0.5, 1.0, and 2.0 x 10^5 AU). Since we intend to evaluate the drug inhibition in ex vivo cultures for at least 4 days, the initial number of AU that matched this condition was chosen. iii) Discrimination between drug-treated and untreated control cells was assessed by adding amphotericin B (AmpB) to the explants cultures. iv) To prevent the edge effect caused by evaporation from outer wells in assays with multi-day incubations, the top and bottom rows as well as the first and last columns were filled with ddH2O. In addition, the positive and negative controls were symmetrically distributed through the columns.
A total of 298 compounds belonged to three distinct collections including i) indenoisoquinolines obtained from Dr. Mark S. Cushman, Department of Medicinal Chemistry and Molecular Pharmacology (Purdue University, Indiana, USA.); ii) podophylotoxin and quinones were a kindly gift from Dr. Arturo San Feliciano, Deparment of Química Farmacéutica (Universidad de Salamanca, Spain) and iii) carbolins obtained from Dr. Sankaran Murugeshan, Department of Pharmacy, (Birla Institute of Technology & Science, Pilani, India). Stock solutions consisted of test compound at a concentration of 200 μM in 20% DMSO. The 200 μM master plates were further diluted by transferring aliquots of 5 μl into black 384-well plates with clear bottom containing 45 μl of culture medium. The final concentration of DMSO in both assay and control wells not exceeded 1% (v/v). […] The plates were incubated at 37 °C and 5% CO2 and at 0, 24, 48 and 72 h the infrared signal was recorded using the Odyssey infrared system (LI-COR, USA). […]
The antileishmanial effect of the compounds was calculated as the percentage inhibition in relation to AmpB and DMSO as follows: (mean of 1%DMSO–Experimental Value) / (mean of 1%DMSO–mean of AmpBEC100) x 100. […] The quality of the assay was given by Z’ factor that was calculated as 1 –[(3SD positive controls + 3SD negative controls) / (mean of the positive controls–mean of the negative controls)]. […]
Firstly, we checked the fluorescence dynamic range in which we could assure the effective and quantifiable replication of intracellular parasites inside macrophages in the absence of active drug over the course of the ex vivo culture. […] For this purpose, we fixed the fluorescence level per well, instead of adjusting the number of cells. […]

A word on the IC50: it is the concentration needed to halve the response being measured. For `C[C@@H]1[C@H](O)[C@@H](C)/C=C/C=C/C=C/C=C/C=C/C=C/C=C/[C@H](O[C@@H]2O[C@H](C)[C@@H](O)[C@H](N)[C@@H]2O)C[C@@H]2O[C@](O)(C[C@@H](O)C[C@@H](O)[C@H](O)CC[C@@H](O)C[C@@H](O)CC(=O)O[C@H]1C)C[C@H](O)[C@H]2C(=O)O` [AmpB, amphotericin B], the IC50 reads like this: (72 h, across all starting cell densities (1.0, 2.0 and 4.0 x10^5 AU), read-out: IC50 values at 72 h) 270 to 380 nM; (starting cell density High: 4x10^5 AU, ten 2-fold dilutions from 10 μM, Fig 4E) 310 ± 50 nM; (starting cell density Low: 1x10^5 AU, ten 2-fold dilutions from 10 μM, Fig 4C) 380 ± 60 nM; (starting cell density Medium: 2x10^5 AU, ten 2-fold dilutions from 10 μM, Fig 4D) 270 ± 40 nM.
